The values below come from US20250302817A1, “METHODS FOR TREATING PTEN-MUTANT TUMORS” (Icahn School of Medicine at Mount Sinai, priority 2016, published 2025).

The subject of data set [1] is Pten^−/− and WT MEFs. The data set is described as follows: Drug response assay (GI50 dose titration) in Pten WT and KO MEFs. Particulars: for differential sensitivity of Pten^−/− versus WT MEFs: GI50 dose titration (FIG. 8, E-F). It is filed as cell-based, mouse. As for the experimental part: (§1) FIG. 2F is a graph comparing various human breast cancer cell line growth rates. FIG. 2G is a series of immunoblots of pAKT in nuclear fractions of Pten^−/− and Pik3ca mutant MEFs. […] Data shown as mean+SD.
(§2) 1500 cells per well (mouse cells) or 3000 cells per well (human cells) were plated in 96-well plates (Corning 720089). Growth rates were determined using the phase-confluency readings on an IncuCyte ZOOM (Essen Biosciences) on live cells over time.
(§3) Cells were plated in 96-well plates at a density of 1500 or 3000 cells per well. […] Sensitivity was determined by a dose-response titration for each cell line, with an equivalent amount of DMSO in each well. For cell death assays, DRAQ7™ (Cell Signaling 7406S) was added to the media at a 1:200 dilution and red fluorescence was measured in addition to phase in live-cell imaging to measure accumulation of dead cells. An IncuCyte ZOOM was used.

The subject of data set [2] is PTEN-deficient cells. The data set is described as follows: Orotate rescue of growth inhibition by leflunomide. Type of data set: cell-based. The note with it: increasing concentrations of orotate with 25 or 50 μM leflunomide; confluence after 5 days.
From the text: as §1
Note that here as well as in FIG. 2, H-I, a large amount of DMSO was used in each condition to match the amount of orotate needed, narrowing the growth differential normally observed between leflunomide-treated and untreated cells in the PTEN mutant setting. FIG. 8B is a bar graph and immunoblot depicting cells transfected with siRNA against DHODH. The bar graph depicts cell viability measured using annexin V and 7AAD. 0.5 μg/mL actinomycin D was a positive control for cell death. (Students t-test, *p<0.05, n=3). […] FIG. 8C is an immunoblot of DHODH in Pten KO and WT cells. FIG. 8D is an immunoblot of pAKT in Pten KO and WT cells with or without treatment with 50 μM A771726. FIG. 8E and FIG. 8F are bar graphs depicting the GI50s of cells treated with dose titrations of 5-fluorouracil or mercaptopurine, respectively (Student's t-test, p>0.05, n=3). FIG. 8G depicts the confluence of prostate cells grown in media containing full glutamine (4 mM) or no added glutamine. Data shown as means±SD.
Orotate (Sigma O2750) was dissolved in DMSO.

The conditions of data set [3]: in vivo; cited from earlier work.
The test system of data set [4] is gamma-H2AX. Put plainly: Gamma-H2AX measurement of DNA damage by flow cytometry. It is filed as cell-based. Particulars: 100 μM leflunomide 48 h or A771726. As for the experimental part:
(§4) FIG. 4A is a graph showing positively-stained cells labeled with a gamma-H2AX antibody; cells were analyzed by flow cytometry (Student's t-test, *p<0.05, n=3). […] The mean fluorescence intensity (MFI) was determined using flow cytometry (Student's t-test, *p<0.01, n=3). FIG. 4C is a series of representative photographs showing MEFs treated with 150 μM A771726 for 24 h and labeled with EdU and gamma-H2AX. Left: representative confocal microscopy images. Right: quantified EdU and gamma-H2AX colocalized foci (Student's t-test, *p<0.05, n=3). […] Left: representative confocal microscopy images. Right: quantification of the number of foci per cell (Student's t-test, p>0.05, n=6). FIG. 4E is a graph showing the percentage of cells treated with 150 μM A771726 for times indicated and labeled with antibodies to RPA and gamma-H2AX positively staining for RPA alone or both RPA and gamma-H2AX; cells were analyzed by flow cytometry (Student's t-test, *p<0.05, n=4). […] FIGS. 4G and 4H are graphs quantifying the number of chromosomal breaks and multiradial formations per haploid genome (Student's t-test, *p-values on figure, cells scored/replicate>100). […]
(§5) FIG. 10D is a bar graph showing a quantitative depiction of the percent cell area with EdU-staining from images in FIG. 4D, used to normalize foci to cell size (Student's t-test, p>0.05, not significant, n=6). […]
Background: Flow cytometry measures light scatter and fluorescence of single cells or particles in a stream.

Data set [5] concerns human breast, mouse breast, or mouse prostate tumor cell lines. The data set is described as follows: Proliferation rates of tumor cell lines versus leflunomide sensitivity. Type of data set: cell-based.
From the text: as §1
(§6) FIG. 7C, FIG. 7D, and FIG. 7E are series of bar graphs depicting the GI50s of cells treated with dose titrations of DHODH inhibitors as indicated (Student's t-test, *p-values as reported on the figures, n=3). […] FIG. 7G depicts the confluence of MCCL-278 and MCCL-357 breast cells. FIG. 7H depicts the confluence of Myc-CaP and CaP8 prostate cells. FIG. 7I is an immunoblot of pAKT in MCCL-278 and MCCL-357 breast cells. FIG. 7J is an immunoblot of pAKT in nuclear fractions of MCCL-278 and MCCL-357 breast cells. Data shown as means±SD.
as §2

The subject of data set [6] is Pten^−/− MEFs. The data set is described as follows: EdU detection of replication forks in MEFs. It is filed as cell-based, mouse. Particulars: after 24 h of treatment with leflunomide. As for the experimental part:
as §4, §5

Data set [7] has as its system MCCL-357 (Myc, Pten^−/−), CaP8 (PTEN^−/−), MCCL-278 (Myc, Pik3ca H1047R) and Myc-CaP (Myc). Put plainly: Drug response assay (GI50) in mouse cancer lines. Type of data set: cell-based. Particulars: Myc-CaP prostate cells (FIG. 7D).
From the text: as §1, §6, §3

Data set [8] relates to Pten^−/− MEFs, PTEN-mutant human breast cancer cell lines, and Pten^−/− mouse breast lines. Put plainly: Cell death accumulation by live-cell imaging with DRAQ7. It is filed as cell-based. The note with it: 100 uM leflunomide and DRAQ7, 6 h intervals; PTEN-deficient versus WT cells.
From the text: as §1, §6, §3

Data set [9] concerns SUM149 and MDA-MB 468 xenografts. The data set is described as follows: PTEN-mutant triple-negative breast cancer xenografts. Type of data set: in vivo, nu/nu mice. As for the experimental part: FIG. 3B is a graph showing the tumor volume of PTEN-mutant triple-negative breast cancer cell line SUM149 xenografts. […] FIG. 3C is a graph showing the relative luminescence of PTEN-mutant triple-negative breast cancer cell line MDA-MB 468 xenografts expressing luciferase. […] Radiance was measured on days 0, 7, 14, and 21, quantified as photons/second/cm^2/steradian. FIG. 3D: luminescence of treated and control mice after 2 weeks of treatment. Data shown as mean+SD for FIG. 3A and +SEM for FIGS. 3B and 3C.
FIG. 9A is an immunoblot of PTEN in the four patient-derived glioblastomas in FIG. 3A. […] Tumor size was measured by assessing luminescence, quantified by photons/second/cm^2/steradian (n=2). […] Tumor volume was measured by calipers. Growth rate of the tumors was determined by calculating the slope of the tumor growth (Student's t-test, *p<0.01, n=8). Data shown as means±SEM.
6-week old nu/nu mice (Jackson Laboratory, 20-25 g weight each) were engrafted orthotopically with either 5 million SUM149, 5 million MDAMB 468-luciferase, 1 million MCCL-357, or 0.75 million MCCL-278 cells. […] Luminescence was measured on days 0, 7, 14, and 21, quantified as photons/second/cm^2/steradian, and normalized to baseline.

The test system of data set [10] is Pten^−/− and WT MEFs. Put plainly: Growth of Pten WT and KO MEFs with glutaminase inhibitor (proliferation assay). The note with it: 12.5 nM CB-839 (FIG. 1F). Type of data set: cell-based, mouse. As for the experimental part: FIG. 1A is a graph comparing the growth of Pten wild-type (WT) and KO MEFs (one-way ANOVA, *p<0.0001, n=3). FIG. 1B is a series of representative confocal microscopy photographs showing MEFs labeled with EdU. FIG. 1C is a graph showing a quantitative depiction of the photographs in FIG. 1B (Student's t-test, *p<0.05, n=6). FIG. 1D is a graph showing a quantitative depiction of the mean fluorescence intensity of MEFs labeled with EdU; cells were analyzed by flow cytometry (Student's t-test, *p<0.01, n=3). FIG. 1E is a series of representative photographs showing Pten WT and KO MEFs in media containing full glutamine ([…]) or no added glutamine (one-way ANOVA, *p<0.0001, n=3). […] FIG. 1G is a graph comparing the relative metabolite concentrations of DNA nucleotide precursors in Pten WT and KO MEFs (dGMP was unable to be measured so dGTP was used instead) (Student's t-test, *p<0.05, n=3). […] Data were also analyzed with IMPaLA: ^13C glutamine-derived pyrimidine metabolism enrichment in PTEN^−/− MEFs q-value=3.92×10^−09. […]
1500 cells per well (mouse cells) or 3000 cells per well (human cells) were plated in 96-well plates (Corning 720089). Growth rates were determined using the phase-confluency readings on an IncuCyte ZOOM (Essen Biosciences) on live cells over time. […]

As to `Cc1c(-c2ccc(-c3ccccc3F)cc2)nc2ccc(F)cc2c1C(=O)O` [brequinar], in data set [1] (GI50 dose titration (FIG. 2A)), the “sensitivity of Pten^−/− MEFs compared with WT MEFs” value was “more sensitive”.

As for `O=c1[nH]cc(F)c(=O)[nH]1` [5-flurouracil, 5-fluorouracil], the “differential sensitivity of Pten^−/− versus WT MEFs” value in data set [1] is reported as “did not show a differential sensitivity”.

With `O=C(O)c1cc(=O)[nH]c(=O)[nH]1` [orotate], the “rescue of growth inhibition by leflunomide” value in data set [2] is recorded as “rescued growth inhibition by leflunomide in a dose-dependent manner”.

On to `Cc1oncc1C(=O)Nc1ccc(C(F)(F)F)cc1` [leflunomide], for which the half-life in data set [3] is recorded as approximately 2 weeks. In [4], the “DNA damage (gamma-H2AX) in PTEN-deficient versus WT cells” value is “augmented DNA damage to a significantly greater degree in PTEN-deficient cells”. Also, the “association of sensitivity with proliferation rates of tumor cell lines” value in data set [5] is on record as “not associated with the proliferation rates”. Besides, in [6], the “number of replication forks in Pten^−/− MEFs after treatment” value was “remained intact”. Moreover, the “sensitivity of Myc-CaP cells” value in data set [7] is reported as “resistant”. For the same compound, in data set [8], the “accumulation of dead cells over time” value is recorded as “increased accumulation of dead cells over time”. Moreover, the “tumor growth upon treatment” value in [9] (100 mg/kg oral leflunomide, two PTEN-mutant triple-negative breast cancer xenografts) is “slowed or regressed”. In [9] (MDA-MB 468 xenografts grown seven weeks untreated, then 100 mg/kg leflunomide for 1 week), the “response of very large tumors (4×10^7 photons)” value is recorded as “regressed after only 1 week of treatment”.

As to `O=C(Cc1cccc(OC(F)(F)F)c1)Nc1ccc(CCCCc2nnc(NC(=O)Cc3ccccn3)s2)nn1` [CB-839], the “growth difference between Pten^−/− and WT MEFs” value in [10] is reported as “sufficient to collapse the growth difference”.

Take `S=c1nc[nH]c2nc[nH]c12` [mercaptopurine]: in data set [1], the “differential sensitivity of Pten^−/− versus WT MEFs” value is “did not show a differential sensitivity”.
